Data as given in patent US20250214990A1, “DIACYLGLYCEROL KINASE (DGK) ALPHA INHIBITORS AND USES THEREOF” (Insilico Medicine IP Limited, priority 2022, published 2025).
pEC50, pIC50: −log10 of the molar value.

Experiments:
[1] = Mouse PK profile after oral administration; type: in vivo, Male CD-1 mice; details: for AUC(0-inf) / AUC(0-t) / Cmax / half-life: male, CD-1, plasma, mouse, oral, 5 mg/kg; for T1/2, Cmax and AUC compared with compound: mouse PK evaluation, comparison in words
Experimental: Species and strain: Male CD-1 mice of SPF. Source: Sino-British SIPPR/BK Lab Animal Ltd, Shanghai. 3 mice were orally gavage administrated with given compounds (Formulation: 5% DMSO+10% Solutol+85% Saline). The blood samples were taken via cephalic vein at timepoints 0.25 h, 0.5 h, 1 h, 2 h, 4 h, 6 h, 8 h and 24 h after oral gavage administration, 30 μL/time point. Blood samples were placed in tubes containing K2-EDTA and stored on ice until centrifuged. The blood samples were centrifuged at 6800 g for 6 minutes at 2-8° C. within 1 h after collected and stored frozen at approximately −80° C. An aliquot of 10 μL plasma samples were protein precipitated with 200 μL MeOH in which contains 10 ng/mL Verapamil (IS). The mixture was vortexed for 1 min and centrifuged at 18000 g for 7 min. Transfer 180 μL supernatant to 96 well plates. An aliquot of 6 μL supernatant was injected for LC-MS/MS analysis by LC-MS/MS-04 (API4000) instrument. The analytical results were confirmed using quality control samples for intra-assay variation. The accuracy of >66.7% of the quality control samples should be between 80-120% of the known value(s). Standard set of parameters including Area Under the Curve (AUC(0-t) and AUC(0-∞)), elimination half-live (T½), maximum plasma concentration (Cmax), will be calculated using noncompartmental analysis modules in FDA certified pharmacokinetic program Phoenix WinNonlin 7.0 (Pharsight, USA).

Human Pan T cells = assay: IL-2 Release Detection Assay; type: cell-based; details: T-cell; for pEC50: IL-2 in supernatant by ELISA, anti-CD3 pre-coated plate, 24 hours; for maximal fold induction: Top activation/DMSO control; for activity at 0.1 µM: curve value at 100 nM/DMSO control*100%, read-out: Activation % at 100 nM
Experimental: Isolate Human Pan T cells from PBMC according to T cell isolation kit (Stemcell, 17951). The suspend T cell in RPMI 1640 medium containing 10% FBS, 1% PS and 55 µM β-Mer at a density of 3*10^6 cells/well/3 ml are seeded into 6 well plate, recovered overnight at 37° C.&[…]. Harvest overnight recovered T cells are suspended in fresh RPMI1640 medium containing 10% FBS, 1% PS and 55 μM f-Mer, seeded 1*10^5/well/200 μl cells into the anti-CD3 pre-coated 96 well plate. Add dilutions of compounds into the cells and incubate at 37° C.&5% CO2 for 24 hours. IL-2 in cell supernatant was detected by ELISA Kit (R&D, DY202). Fit the compound EC50 in non-linear regression equation: Y=Bottom+(Top−Bottom)/(1+10^((Log EC50−X)*HillSlope)), X=compound concentration, Y=Activation %. Top and Bottom: Plateaus in same units as Y. Log EC50: same log units as X. Activation fold: Top activation/DMSO control. Activation % at 100 nM: Activation of non-linear regression equation curve at the concentration of 100 nM/DMSO control*100%.

DGKA = target: T1, DGKA (Homo sapiens, UniProt P23743); assay: DGKA Inhibition ADP-Glo Assay; type: biochemical; details: 40 μM ATP
T1 construct: purchased SignalChem D21-10BG
T1 sequence (P23743 whole entry): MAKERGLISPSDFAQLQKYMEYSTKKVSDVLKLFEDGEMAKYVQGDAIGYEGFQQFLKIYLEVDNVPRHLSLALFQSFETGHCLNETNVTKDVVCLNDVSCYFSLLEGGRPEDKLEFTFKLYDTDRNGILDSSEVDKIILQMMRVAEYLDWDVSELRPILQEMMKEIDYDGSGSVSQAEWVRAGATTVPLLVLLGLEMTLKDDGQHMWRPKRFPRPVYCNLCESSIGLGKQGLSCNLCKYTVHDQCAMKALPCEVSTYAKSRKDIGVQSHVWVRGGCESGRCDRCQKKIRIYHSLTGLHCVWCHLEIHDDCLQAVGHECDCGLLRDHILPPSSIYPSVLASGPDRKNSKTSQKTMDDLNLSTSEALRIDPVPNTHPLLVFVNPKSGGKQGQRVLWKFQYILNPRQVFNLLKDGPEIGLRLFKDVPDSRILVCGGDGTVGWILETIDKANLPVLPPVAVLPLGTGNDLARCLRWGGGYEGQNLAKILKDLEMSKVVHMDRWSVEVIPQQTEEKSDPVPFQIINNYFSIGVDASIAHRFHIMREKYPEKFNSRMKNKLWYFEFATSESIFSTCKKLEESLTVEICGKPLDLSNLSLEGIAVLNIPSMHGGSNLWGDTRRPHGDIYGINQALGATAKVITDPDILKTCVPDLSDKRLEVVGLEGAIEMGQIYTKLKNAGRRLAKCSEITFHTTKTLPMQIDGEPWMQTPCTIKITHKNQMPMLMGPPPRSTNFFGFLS
Experimental: The DGKA inhibition reactions were performed using ADP-Glo assay. The reactions were carried out in 50 mM HEPES, 100 mM NaCl, 10 mM MgCl2, 1 mM CaCl2, 0.005% TritonX-100 and 1 mM DTT as working solution (pH=7.5). 30 nL DMSO solution of each test compound (Top concentration […] with 10 point, 4-fold dilution series for each compound) were transferred to 384 well plate by Echo and 5 μL DGKA (SignalChem, D21-10BG) enzyme working solution at 2× final reaction concentration was added to each well. After incubated at 25° C. for 15 minutes, 5 μL substrate working solution contain 40 μM ATP (Promega, V915B) and 200 µM DLG (SignalChem, D430-59) were added to initiate reaction. After enzymatic reaction at 25° C. for 60 min, ADP Glo assay reagents (Promega, V9102) were added and luminescence was recorded using an EnVision following the instruction of manual. […] The IC50 value was calculated via a regression analysis of the inhibition rate.

[2] = Rat PK profile after oral administration; type: in vivo, Male SD rats; details: for AUC(0-inf) / AUC(0-t) / Cmax / half-life: male, SD, plasma, rat, oral, 5 mg/kg; for T1/2, Cmax and AUC compared with compound: rat PK evaluation, comparison in words
Experimental: Species and strain: Male SD rats of SPF. Source: Sino-British SIPPR/BK Lab Animal Ltd, Shanghai. 3 rats were orally gavage administrated with given compounds (Formulation: 5% DMSO+10% Solutol+85% Saline). The blood samples were taken via submandibular vein or other suitable vein at timepoints 0.25 h, 0.5 h, 1 h, 2 h, 4 h, 6 h, 8 h and 24 h after oral gavage administration, 0.15 mL/time point. Blood samples were placed in tubes containing K2-EDTA and stored on ice until centrifuged. The blood samples were centrifuged at 6800 g for 6 minutes at 2-8° C. within 1 h after collected and stored frozen at approximately −80° C. An aliquot of 30 μL plasma samples were protein precipitated with 300 μL MeOH in which contains 100 ng/mL Verapamil (IS). The mixture was vortexed for 1 min and centrifuged at 18000 g for 7 min. Transfer 300 μL supernatant to 96 well plates. An aliquot of 8 μL supernatant was injected for LC-MS/MS analysis by LC-MS/MS-12 (TQ5500) instrument. The analytical results were confirmed using quality control samples for intra-assay variation. The accuracy of >66.7% of the quality control samples should be between 80-120% of the known value(s). Standard set of parameters including Area Under the Curve (AUC(0-t) and AUC(0-∞)), elimination half-live (T1/2), maximum plasma concentration (Cmax), will be calculated using noncompartmental analysis modules in FDA certified pharmacokinetic program Phoenix WinNonlin 7.0 (Pharsight, USA).

**Q.** What does the source list for Cn1c(=O)nc(N2CCOCc3c(C#CC4CC4)cccc32)c2cc(Cl)c(OCCO)cc21 [Example 41, 6-chloro-4-(6-(cyclopropylethynyl)-2,3-dihydrobenzo[e][1,4]oxazepin-1(5H)-yl)-7-(2-hydroxyethoxy)-1-methylquinazolin-2(1H)-one]?
**A.** AUC(0-inf) [1]: 15500 ng·h/mL; AUC(0-t) [1]: 15300 ng·h/mL; Cmax [1]: 2230 ng/mL; half-life [1]: 3.28 h; T1/2, Cmax and AUC compared with compound [1]: longer T1/2, much higher Cmax and AUC; pEC50 (Human Pan T cells): 6.22; maximal fold induction (Human Pan T cells): 26.3; activity at 0.1 µM (Human Pan T cells): 510%; pIC50 (DGKA): > 9.00; AUC(0-inf) [2]: 12000 ng·h/mL; AUC(0-t) [2]: 10200 ng·h/mL; Cmax [2]: 724 ng/mL; half-life [2]: 8.09 h; T1/2, Cmax and AUC compared with compound [2]: longer T1/2, much higher Cmax and AUC

**Q.** For Cn1c(=O)nc(N2CCOCc3c(C#CC4(C(F)(F)F)CC4)cccc32)c2cc(C#N)c(OC3CCOC3)cc21 (stereo not drawn) [Example 12, 1-methyl-2-oxo-7-((tetrahydrofuran-3-yl)oxy)-4-(6-((1-(trifluoromethyl)cyclopropyl)ethynyl)-2,3-dihydrobenzo[e][1,4]oxazepin-1(5H)-yl)-1,2-dihydroquinazoline-6-carbonitrile], which AUC(0-inf) [1] is on record?
**A.** 7870 ng·h/mL

**Q.** What about the AUC(0-t) [1] of the same compound?
**A.** 7740 ng·h/mL

**Q.** What about the Cmax [1] of the same compound?
**A.** 1690 ng/mL

**Q.** And the half-life [1]?
**A.** 1.03 h

**Q.** What about the pEC50 (Human Pan T cells) of the same compound?
**A.** 5.97

**Q.** And the maximal fold induction (Human Pan T cells)?
**A.** 14.2

**Q.** And the activity at 0.1 µM (Human Pan T cells)?
**A.** 311%

**Q.** And the pIC50 (DGKA)?
**A.** > 9.00

**Q.** For Cn1c(=O)nc(N2CCOCc3c(C#CC4(C(F)(F)F)CC4)cccc32)c2cc(Cl)ccc21 [Example 5, 6-chloro-1-methyl-4-(6-((1-(trifluoromethyl)cyclopropyl)ethynyl)-2,3-dihydrobenzo[e][1,4]oxazepin-1(5H)-yl)quinazolin-2(1H)-one], which AUC(0-inf) [1] is on record?
**A.** 7110 ng·h/mL

**Q.** And the AUC(0-t) [1]?
**A.** 6660 ng·h/mL

**Q.** What about the Cmax [1] of the same compound?
**A.** 985 ng/mL

**Q.** And the half-life [1]?
**A.** 2.03 h

**Q.** And the pEC50 (Human Pan T cells)?
**A.** 6.35

**Q.** What about the maximal fold induction (Human Pan T cells) of the same compound?
**A.** 7.7

**Q.** What about the activity at 0.1 µM (Human Pan T cells) of the same compound?
**A.** 395%

**Q.** And the pIC50 (DGKA)?
**A.** > 9.00

**Q.** And the AUC(0-inf) [2]?
**A.** 3760 ng·h/mL

**Q.** And the AUC(0-t) [2]?
**A.** 3470 ng·h/mL

**Q.** And the Cmax [2]?
**A.** 292 ng/mL

**Q.** What about the half-life [2] of the same compound?
**A.** 6.32 h

**Q.** For Cn1c(=O)nc(N2CCOCc3c(C#CC4(C(F)(F)F)CC4)cccc32)c2cc(Cl)c(OCCO)cc21 [Example 13, 6-chloro-7-(2-hydroxyethoxy)-1-methyl-4-(6-((1-(trifluoromethyl)cyclopropyl)ethynyl)-2,3-dihydrobenzo[e][1,4]oxazepin-1(5H)-yl)quinazolin-2(1H)-one], which AUC(0-inf) [1] is on record?
**A.** 28400 ng·h/mL

**Q.** What about the AUC(0-t) [1] of the same compound?
**A.** 26200 ng·h/mL

**Q.** And the Cmax [1]?
**A.** 2400 ng/mL

**Q.** What about the half-life [1] of the same compound?
**A.** 6.13 h

**Q.** And the “T1/2, Cmax and AUC compared with compound” value [1]?
**A.** longer T1/2, much higher Cmax and AUC

**Q.** And the pEC50 (Human Pan T cells)?
**A.** 6.88

**Q.** What about the maximal fold induction (Human Pan T cells) of the same compound?
**A.** 22.5

**Q.** What about the pIC50 (DGKA) of the same compound?
**A.** > 9.00

**Q.** What about the AUC(0-t) [2] of the same compound?
**A.** 7520 ng·h/mL

**Q.** And the Cmax [2]?
**A.** 455 ng/mL

**Q.** What about the “T1/2, Cmax and AUC compared with compound” value [2] of the same compound?
**A.** longer T1/2, much higher Cmax and AUC
